16 compounds from ChEMBL document CHEMBL3600291, “Synthesis and carbonic anhydrase I, II, IX and XII inhibitory activity of sulfamates incorporating piperazinyl-ureido moieties” (Bioorg Med Chem, 2015) can be followed below.

As usually defined, the Ki is the dissociation constant of the complex between target and ligand, obtained from inhibition or displacement.

Bounds are passed on as bounds.

For one assay, the target named is Carbonic anhydrase 9 (Homo sapiens, UniProt Q16790). The assay is described as follows: Inhibition of human recombinant carbonic anhydrase-9 pre-incubated for 15 mins by stopped-flow CO2 hydration assay.
Another assay has as its target Carbonic anhydrase 2 (Homo sapiens, UniProt P00918). The assay is described as follows: Inhibition of human recombinant carbonic anhydrase-2 pre-incubated for 15 mins by stopped-flow CO2 hydration assay.
The next assay deals with Carbonic anhydrase 12 (Homo sapiens, UniProt O43570). The assay is described as follows: Inhibition of human recombinant carbonic anhydrase-12 pre-incubated for 15 mins by stopped-flow CO2 hydration assay.
Carbonic anhydrase 12, sequence (O43570 whole entry): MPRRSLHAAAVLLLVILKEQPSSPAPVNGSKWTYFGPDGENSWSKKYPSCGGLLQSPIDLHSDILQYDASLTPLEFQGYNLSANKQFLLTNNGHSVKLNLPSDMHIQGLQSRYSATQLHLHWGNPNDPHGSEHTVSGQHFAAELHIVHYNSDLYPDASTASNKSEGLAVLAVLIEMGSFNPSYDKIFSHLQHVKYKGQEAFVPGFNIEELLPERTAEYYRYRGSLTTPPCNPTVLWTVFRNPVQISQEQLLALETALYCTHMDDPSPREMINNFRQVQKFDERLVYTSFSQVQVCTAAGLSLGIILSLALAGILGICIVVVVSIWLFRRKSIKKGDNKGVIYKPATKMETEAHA
A further assay deals with Carbonic anhydrase 1 (Homo sapiens, UniProt P00915). The assay is described as follows: Inhibition of human recombinant carbonic anhydrase-1 pre-incubated for 15 mins by stopped-flow CO2 hydration assay.
Carbonic anhydrase 1, sequence (P00915 whole entry): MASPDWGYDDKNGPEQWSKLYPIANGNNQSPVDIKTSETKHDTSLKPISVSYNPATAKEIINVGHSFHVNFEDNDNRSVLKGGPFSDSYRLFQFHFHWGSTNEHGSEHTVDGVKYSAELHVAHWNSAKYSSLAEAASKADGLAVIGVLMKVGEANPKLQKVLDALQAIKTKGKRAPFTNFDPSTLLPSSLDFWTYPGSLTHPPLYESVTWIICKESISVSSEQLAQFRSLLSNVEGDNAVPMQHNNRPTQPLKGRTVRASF

Turning to `O=C(Nc1ccc(O)cc1)N1CCN(c2ccc(F)cc2)CC1`, the Ki at Carbonic anhydrase 9 stood at 36.9 nM.

Regarding `COc1ccc(N2CCN(C(=O)Nc3ccc(OS(N)(=O)=O)cc3)CC2)cc1`, the Ki at Carbonic anhydrase 9 amounted to 114 nM; at Carbonic anhydrase 2, 9.1 nM; at Carbonic anhydrase 12, 1.1 nM; at Carbonic anhydrase 1, 282 nM.

As to `O=C(Nc1ccc(O)cc1)N1CCN(Cc2ccccc2)CC1`, the Ki at Carbonic anhydrase 9 was 113 nM; on Carbonic anhydrase 1 it was > 10000 nM.

In the case of `O=C(Nc1ccc(O)cc1)N1CCN(c2ccccc2)CC1`, the Ki on Carbonic anhydrase 9 was 121 nM.

Take `Cc1cccc(N2CCN(C(=O)Nc3ccc(OS(N)(=O)=O)cc3)CC2)c1C`: the Ki on Carbonic anhydrase 9 stood at 32.3 nM; on Carbonic anhydrase 2, 11.1 nM; at Carbonic anhydrase 12, 1 nM; at Carbonic anhydrase 1 it was 63.5 nM.

On to `Cc1cccc(N2CCN(C(=O)Nc3ccc(OS(N)(=O)=O)cc3)CC2)c1`, for which the Ki stood at 0.91 nM at Carbonic anhydrase 9, 15.9 nM at Carbonic anhydrase 2, 35.8 nM at Carbonic anhydrase 12 and 851 nM on Carbonic anhydrase 1.

Turning to `NS(=O)(=O)Oc1ccc(NC(=O)N2CCN(c3nccc(-c4ccc(C(F)(F)F)cc4)n3)CC2)cc1`, at Carbonic anhydrase 9, the Ki was determined as 24.3 nM.

In the case of `NS(=O)(=O)Oc1ccc(NC(=O)N2CCN(c3ccccc3)CC2)cc1`, the Ki on Carbonic anhydrase 9 worked out at 11.1 nM; on Carbonic anhydrase 2 it was 71.9 nM; on Carbonic anhydrase 12 it was 1 nM; on Carbonic anhydrase 1, 897 nM.

On to `O=C(Nc1ccc(O)cc1)N1CCN(c2ccc(Cl)cc2)CC1`, for which the figures for the Ki at Carbonic anhydrase 9 and on Carbonic anhydrase 1 were 80.5 nM and > 10000 nM, respectively.

Turning to `NS(=O)(=O)Oc1ccc(NC(=O)N2CCN(c3ccc(Cl)cc3)CC2)cc1`, the Ki was 10.4 nM at Carbonic anhydrase 9, 16.9 nM on Carbonic anhydrase 2, 84.5 nM at Carbonic anhydrase 12 and 581 nM on Carbonic anhydrase 1.

Regarding `COc1cccc(N2CCN(C(=O)Nc3ccc(OS(N)(=O)=O)cc3)CC2)c1`, the Ki was 34.1 nM on Carbonic anhydrase 9, 11.2 nM on Carbonic anhydrase 2, 37 nM on Carbonic anhydrase 12 and 88.1 nM at Carbonic anhydrase 1.

Regarding `NS(=O)(=O)Oc1ccc(NC(=O)N2CCN(Cc3ccccc3)CC2)cc1`, the Ki at Carbonic anhydrase 9 worked out at 10.5 nM; on Carbonic anhydrase 2, 11.7 nM; on Carbonic anhydrase 12, 1 nM; on Carbonic anhydrase 1 it was 317 nM.

Turning to `NS(=O)(=O)Oc1ccc(NC(=O)N2CCN(c3nccc(-c4cc5ccccc5o4)n3)CC2)cc1`, the Ki on Carbonic anhydrase 9 turned out to be 6.7 nM; on Carbonic anhydrase 2 it was 1 nM; on Carbonic anhydrase 12, 1 nM; at Carbonic anhydrase 1 it was 70.2 nM.

For `NS(=O)(=O)Oc1ccc(NC(=O)N2CCN(c3ccc(F)cc3)CC2)cc1`, the Ki on Carbonic anhydrase 9 stood at 61.5 nM; on Carbonic anhydrase 2 it was 18.2 nM; at Carbonic anhydrase 12 it was 64.7 nM; at Carbonic anhydrase 1, 9.4 nM.

Take `NS(=O)(=O)Oc1ccc(NC(=O)N2CCN(c3nccc(-c4ccc(Br)cc4)n3)CC2)cc1`: the Ki at Carbonic anhydrase 9 stood at 114 nM.

For the compound `Cc1cccc(N2CCN(C(=O)Nc3ccc(O)cc3)CC2)c1`, the Ki on Carbonic anhydrase 9 was 549 nM.
